Common to all, as to type: functional
For test [1], the system named is Macrophomina phaseolina. The test can be described thus: Fungicidal activity against Macrophomina phaseolina in non-grafted Melon plants cv. 6405 plots infested with Macrophomina phaseolina assessed as disease incidence exposed to compound at 250 ml/1000 m2 of commercial product applied as soil drench to crown zone 2 times during growing season 44 to 56 days after seeding (reference value: 45%).

The subject of test [2] is Macrophomina phaseolina. The test can be described thus: Fungicidal activity against Macrophomina phaseolina in non-grafted Melon plants cv. 6405 plots infested with Macrophomina phaseolina assessed as disease incidence exposed to compound at 250 ml/1000 m2 of commercial product applied as soil drench to crown zone three times during growing season 21 to 49 days after transplanting (reference value: 23%).

Test [3] deals with Macrophomina phaseolina. The test can be described thus: Fungicidal activity against Macrophomina phaseolina in non-grafted Melon plants cv. 6405 plots assessed as disease incidence exposed to compound at 200 ml/1000 m2 of commercial product applied as soil drench three times during growing season (reference value: 65%).
Test [4] deals with Macrophomina phaseolina. The test can be described thus: Fungicidal activity against Macrophomina phaseolina in non-grafted Melon plants cv. 6405 plots infested with Macrophomina phaseolina assessed as disease incidence exposed to compound at 250 ml/1000 m2 of commercial product applied as soil drench to crown zone 1 time during growing season 44 to 56 days after seeding (reference value: 45%).

Test [5] concerns Macrophomina phaseolina. Put plainly: Fungicidal activity against Macrophomina phaseolina assessed as mycelial growth inhibition incubated at 27 degC for 5 days. As to conditions: 120 h.
Test [6] has as its system Macrophomina phaseolina. Put plainly: Fungicidal activity against Macrophomina phaseolina in non-grafted Melon plants cv. 6405 plots assessed as disease incidence exposed to compound at 100 ml/1000 m2 of commercial product applied as soil drench three times during growing season (reference value: 65%).
Test [7] relates to Macrophomina phaseolina. The test can be described thus: Fungicidal activity against Macrophomina phaseolina in non-grafted Melon plants cv. 6405 plots assessed as disease incidence exposed to compound at 250 ml/1000 m2 of commercial product applied as soil drench three times during growing season (reference value: 65%).
Test [8] concerns Macrophomina phaseolina. The test can be described thus: Fungicidal activity against Macrophomina phaseolina in non-grafted Melon plants cv. 6405 plots assessed as disease incidence exposed to compound at 300 ml/1000 m2 of commercial product applied as soil drench three times during growing season (reference value: 65%).
For test [9], the system named is Macrophomina phaseolina. Put plainly: Fungicidal activity against Macrophomina phaseolina in non-grafted Melon plants cv. 6405 plots infested with Macrophomina phaseolina assessed as disease incidence exposed to compound at 40 ml/1000 m2 of commercial product applied as soil drench to crown zone three times during growing season 21 to 49 days after transplanting (reference value: 23%).

Test [10] concerns Macrophomina phaseolina. The test can be described thus: Fungicidal activity against Macrophomina phaseolina in non-grafted Melon plants cv. 6405 plots infested with Macrophomina phaseolina assessed as disease incidence exposed to compound at 40 ml/1000 m2 of commercial product applied as soil drench to crown zone 2 times during growing season 44 to 56 days after seeding (reference value: 45%).

Test [11] concerns Macrophomina phaseolina. Put plainly: Fungicidal activity against Macrophomina phaseolina in non-grafted Melon plants cv. 6405 plots assessed as disease incidence exposed to compound at 350 ml/1000 m2 of commercial product applied as soil drench three times during growing season (reference value: 65%).

Experimental findings from ChEMBL document CHEMBL3046872, “Management of Macrophomina wilt in melons using grafting or fungicide soil application: Pathological, horticultural and economical aspects” (2012) are described below.

A word on the ED50: it is the dose that gives a 50% effect, or the effect in half of the subjects. `CO/C=C(/C(=O)OC)c1ccccc1Oc1cc(Oc2ccccc2C#N)ncn1` [AZOXYSTROBIN]: the Activity in the test on Macrophomina phaseolina [1] amounted to 5%; with Macrophomina phaseolina [2], 3%; with Macrophomina phaseolina [3], 5%; in the test with Macrophomina phaseolina [4] it was 15%. Moreover, the ED50 with Macrophomina phaseolina [5] was 0.38 mg/kg.

As to `N#Cc1c(Cl)c(Cl)c(Cl)c(C#N)c1Cl` [CHLOROTHALONIL], in the test on Macrophomina phaseolina [5], the ED50 is 0.61 mg/kg.

On to `O=C(Cc1ccccc1)N/C(=N\OCC1CC1)c1c(C(F)(F)F)ccc(F)c1F` [CYFLUFENAMID], for which the Activity in the test on Macrophomina phaseolina [6] came to 60%. In addition, the ED50 in the test with Macrophomina phaseolina [5] was < 0.01 mg/kg.

As to `O=[N+]([O-])c1cc(C(F)(F)F)c(Cl)c([N+](=O)[O-])c1Nc1ncc(C(F)(F)F)cc1Cl` [FLUAZINAM], the ED50 with Macrophomina phaseolina [5] was < 0.01 mg/kg.

Turning to `OC(Cn1cncn1)(c1ccc(F)cc1)c1ccccc1F` (configuration not stated) [FLUTRIAFOL], in the test with Macrophomina phaseolina [7], the Activity is reported as 50%. For the same molecule, the ED50 in the test on Macrophomina phaseolina [5] was 13.1 mg/kg.

On to `CC(C)NC(=O)N1CC(=O)N(c2cc(Cl)cc(Cl)c2)C1=O` [IPRODIONE], for which, in the test on Macrophomina phaseolina [3], the Activity is on record as 35%. Besides, the 50% effective dose (ED50) in the test with Macrophomina phaseolina [5] was 0.03 mg/kg.

For `COCC(=O)N(c1c(C)cccc1C)[C@H](C)C(=O)OC` [MEFENOXAM], the results for the Activity in the test on Macrophomina phaseolina [8], with Macrophomina phaseolina [9] and with Macrophomina phaseolina [10] were 10%, 10% and 50%, respectively. In addition, the ED50 with Macrophomina phaseolina [5] is > 10 mg/kg.

In the case of `CCCCC(C#N)(Cn1cncn1)c1ccc(Cl)cc1` (configuration not stated) [MYCLOBUTANIL], in the test with Macrophomina phaseolina [3], the Activity turned out to be 45%. Further, in the test on Macrophomina phaseolina [5], the median effective dose (ED50) is 0.26 mg/kg.

Turning to `CCCN(CCOc1c(Cl)cc(Cl)cc1Cl)C(=O)n1ccnc1` [PROCHLORAZ], the Activity in the test with Macrophomina phaseolina [7] is 35%. The 50% effective dose (ED50) in the test on Macrophomina phaseolina [5] was found to be 0.04 mg/kg.

`CCCOC(=O)NCCCN(C)C.Cl` [PROPAMOCARB HYDROCHLORIDE]: in the test with Macrophomina phaseolina [11], the Activity is 30%. Further, the 50% effective dose (ED50) in the test with Macrophomina phaseolina [5] was 0.9 mg/kg.

Consider `FC(F)C(F)(F)OCC(Cn1cncn1)c1ccc(Cl)cc1Cl` (configuration not stated) [TETRACONAZOLE], for which the Activity in the test on Macrophomina phaseolina [8] was 15%. The ED50 in the test on Macrophomina phaseolina [5] is 2.96 mg/kg.

Consider `O=CNC(N1CCN(C(NC=O)C(Cl)(Cl)Cl)CC1)C(Cl)(Cl)Cl` (configuration not stated) [TRIFORINE], for which the Activity with Macrophomina phaseolina [7] is 25%. For the same molecule, the ED50 with Macrophomina phaseolina [5] was determined as 1 mg/kg.
